The test system of experiment [1] is hippocampal slices. Put plainly: Paired pulse facilitation (PPF) at the CA3-CA1 connection. The experiment is classed as cell-based, mouse.
The subject of experiment [2] is hippocampal slices.
The target of experiment [3] is rodent Aβ42 (Mus musculus; Rattus norvegicus). The experiment can be described thus: cell-based or functional assay.

In the case of `CNC1(C)C2CCC(C2)C1(C)C` (centres unmarked) [MCL, mecamylamine], the PPF in experiment [1] (20 ms interval, MCL 3 μM for 20 min plus Aβ42) is reported as 138.18±22.01 % of facilitation; in experiment [1] (30 ms interval, MCL 3 μM for 20 min plus Aβ42), 158.58±16.79 % of facilitation; in experiment [1] (40 ms interval, MCL 3 μM for 20 min plus Aβ42), 176.71±17.51 % of facilitation; in experiment [1] (50 ms interval, MCL 3 μM for 20 min plus Aβ42), 197.49±22.30 % of facilitation; in experiment [1] (MCL 3 μM for 20 min alone), 214.53±20.85%. Besides, the PTP entry in experiment [2] is “does not affect PTP”.
anti-rodent Aβ monoclonal antibody m3.2 registered a contextual fear conditioning, freezing 24 hrs after training, m3.2 mAb 1 µg in 1 µl into dorsal hippocampi (% of freezing) in experiment [3] of 16.8.
On to α-bungarotoxin [α-BgTx], for which the PTP entry in experiment [2] was “does not affect PTP”.

For the origin of these results see patent US20100081613A1, “METHODS AND COMPOSITIONS FOR ENHANCING MEMORY” (THE TRUSTEES OF COLUMBIA UNIVERSITY IN THE CITY OF NEW YORK, priority 2006, published 2010).
